Data published in PMC10890569, “The Sequence Characteristics and Binding Properties of the Odorant-Binding Protein SvelOBP1 from Sympiezomias velatus (Coleoptera: Curculionidae) to Jujube Volatiles” (Life, 2024).
Read-outs that look alike come from different tables or passages of the source.

Experiments:
SvelOBP1 [1] = assay: Competitive fluorescence binding assay (displacement of 1-NPN); parameters: species or system Sympiezomias velatus; conditions: for IC50: 2 μM recombinant SvelOBP1/1-NPN, ligand 0-16 μM, 20 mM Tris-HCl pH7.4, three replicates, read-out: IC50 (ligand concentration replacing 50% of initial fluorescence of SvelOBP1/1-NPN mixture)
Description: (§1) The fluorescent probe 1-N-phenyl-naphthylamine (1-NPN) was used to evaluate the binding affinity of SvelOBP1 protein to different ligands. Forty-three host plant volatiles from leaves of jujube trees were selected as putative ligands (Table 2). Fluorescence-based ligand binding assays were performed on an F-2700 fluorescence spectrophotometer (Hitachi, Tokyo, Japan). The excitation wavelength was 337 nm, and the emission spectra were in the range from 370 to 550 nm. First, all tested ligands and 1-NPN were dissolved in chromatographic methanol and diluted to 1 mM as the stock solution. Second, the recombinant protein was diluted to 2 μM with 20 mM Tris-HCl (pH7.4), and 2 mL of the protein solution was placed in a 1 cm light path quartz cuvette.
(§2) The dissociation constants K1-NPN of 1-NPN to SvelOBP1 were calculated by GraphPad Prism 8.0 software with non-linear regression for the one site-specific binding method. The inhibitory constant (Ki) of each ligand binding to SvelOBP1 was calculated with Equation (1). IC50 is the ligand concentration replacing 50% of the initial fluorescence intensity of the SvelOBP1/1-NPN mixture. [1-NPN] represents the free concentration of 1-NPN. […] (1) Ki=IC50/(1+[1−NPN]/K1−NPN)

SvelOBP15 = biological target: SvelOBP15; parameters: method as in PMID 35711318; conditions: cited from earlier work
SvelOBP1 [2] = assay: Binding of fluorescent probe 1-NPN to SvelOBP1 (titration, Scatchard plot); parameters: species or system Sympiezomias velatus; conditions: 2 μM SvelOBP1 titrated with 1-NPN 0-16 μM, pH7.4; read-out: dissociation constant (Kd) of 1-NPN
Description: as §1, §2

[3] = Ki=IC50/(1+[1-NPN]/K1-NPN), 2 μM SvelOBP1/1-NPN, pH7.4, mean ± SEM, read-out: Ki (inhibitory constant)
[4] = class in words by Ki, read-out: binding affinity class

| SMILES | IC50 (SvelOBP1 [1]; mean ± SEM) [µM] | Ki (SvelOBP1 [1]; [3]) [µM] | also measured |
| --- | --- | --- | --- |
| CCOC(=O)C(C)CC (stereo not drawn) [Ethyl 2-methylbutyrate] | 11.28 ± 0.1 | 9.37 ± 0.08 |  |
| CCC/C=C/COC(C)=O [[(E)-hex-2-en-1-yl] acetate] | > 16 |  |  |
| CCCCC(=O)OCC [Ethyl pentanoate] | 14.1 ± 0.31 | 11.7 ± 0.26 |  |
| CC/C=C\CCOC(=O)CC(C)C [[(Z)-hex-3-enyl] 3-methylbutanoate] | 14.4 ± 0.16 | 11.9 ± 0.13 |  |
| CC12CCC(CC1)C(C)(C)O2 [1,3,3-trimethyl-2-oxabicyclo [2.2.2]octane] | 13.81 ± 0.13 | 11.48 ± 0.11 |  |
| C=CC(C)=CCC=C(C)C [3,7-dimethylocta-1,3,6-triene] | 11.13 ± 0.06 | 9.25 ± 0.05 |  |
| C=C/C(C)=C/C/C=C(\C)CCC=C(C)C [(3E,6E)-3,7,11-trimethyldodeca-1,3,6,10-tetraene] |  | 8.73 ± 0.09 |  |
| CCC/C=C/COC(=O)CCCCC [[(E)-hex-2-enyl] hexanoate] | 14.51 ± 0.06 | 12.06 ± 0.05 |  |
| CCCC(=O)OCC [Ethyl butyrate] | 14.2 ± 0.16 | 11.8 ± 0.13 |  |
| C/C=C(\C)C(=O)OCC [Ethyl (E)-2-methylbut-2-enoate] | > 16 |  |  |
| CC(C)=Cc1ccccc1 [2-methylprop-1-enylbenzene] | > 16 |  |  |
| CC/C=C\CCOC(=O)C(C)CC (stereo not drawn) [[(Z)-hex-3-enyl] 2-methylbutanoate] | 13.4 ± 0.2 | 11.2 ± 0.16 |  |
| CC(C)=CCC/C(C)=C/C(=O)O [(2E)-3,7-dimethylocta-2,6-dienoic acid] | > 16 |  |  |
| C=CC(C)(O)CC/C=C(\C)CCC=C(C)C (stereo not drawn) [(6E)-3,7,11-trimethyldodeca-1,6,10-trien-3-ol] | > 16 |  |  |
| C=CC(C)(O)CCC=C(C)C (stereo not drawn) [3,7-dimethylocta-1,6-dien-3-ol] | 13.6 ± 0.16 | 11.3 ± 0.13 |  |
| CC(=O)c1ccc(C)c(C)c1 [1-(3,4-dimethylphenyl)ethanone] | > 16 |  |  |
| CC1=CCC(C(C)C)C=C1 (stereo not drawn) [2-methyl-5-propan-2-ylcyclohexa-1,3-diene] | 11.69 ± 0.07 | 9.71 ± 0.06 |  |
| C=C(C)C1CC=C(C)CC1 (stereo not drawn) [1-methyl-4-prop-1-en-2-ylcyclohexene] | 13.11 ± 0.02 | 10.9 ± 0.01 |  |
| CC/C=C\CCOC(=O)CCC [[(Z)-hex-3-enyl] butanoate] | 15.5 ± 0.9 | 12.9 ± 0.75 |  |
| CC(C)=CCC/C(C)=C/CC/C(C)=C/CC/C=C(\C)CC/C=C(\C)CCC=C(C)C [(6E,10E,14E,18E)-2,6,10,15,19,23-hexamethyltetracosa-2,6,10,14,18,22-hexaene] | > 16 |  |  |
| CC/C=C\CCO [(Z)-hex-3-en-1-ol] |  | 7.98 ± 0.08 | Ki (SvelOBP1 [1]; [4]): 5 to 10 µM; Ki (SvelOBP15): > 16 µM |
| C=C1C2CCC(C2)C1(C)C (stereo not drawn) [2,2-dimethyl-3-methylidenebicyclo [2.2.1]heptane] | > 16 |  |  |

| SMILES | IC50 (SvelOBP1 [1]; mean ± SEM) [µM] | Ki (SvelOBP1 [1]; [3]) [µM] | also measured |
| --- | --- | --- | --- |
| CC(C)C=O [2-methylpropanal] | > 16 |  |  |
| CC(C)=CCC/C(C)=C/CC/C(C)=C/CO [(2E,6E)-3,7,11-trimethyldodeca-2,6,10-trien-1-ol] | 14.4 ± 0.17 | 11.9 ± 0.14 |  |
| CCCCCCCCCCCC [Dodecane] | > 16 |  |  |
| CC1=CC[C@H]2C[C@@H]1C2(C)C [(1S,5S)-2,6,6-trimethylbicyclo [3.1.1]hept-2-ene] | > 16 |  |  |
| COC(=O)c1ccccc1O [Methyl 2-hydroxybenzoate] | > 16 |  |  |
| C=CC(O)CCCCC (stereo not drawn) [Oct-1-en-3-ol] | 15.18 ± 0.13 | 12.61 ± 0.11 |  |
| CC(C)=CCC/C(C)=C/CO [(2E)-3,7-dimethylocta-2,6-dien-1-ol] | > 16 |  |  |
| CCCCOC(=O)c1ccccc1C(=O)OCCCC [Dibutyl benzene-1,2-dicarboxylate] |  | 6.66 ± 0.03 |  |
| CCc1ccc(C(C)=O)cc1 [1-(4-ethylphenyl)ethanone] | 13.1 ± 0.16 | 10.9 ± 0.13 | Ki (SvelOBP1 [1]; [4]): 10 to 16 µM |
| CCOC(=O)CC(C)C [Ethyl 3-methylbutanoate] | > 16 |  |  |
| CC/C=C\CCOC(C)=O [[(Z)-hex-3-enyl] acetate] | 14.45 ± 0.11 | 12.01 ± 0.09 |  |
| CCCCOC(C)=O [Butyl acetate] | 13.2 ± 0.47 | 10.9 ± 0.39 |  |
| C=CC(=C)CCC=C(C)C [7-methyl-3-methylideneocta-1,6-diene] | > 16 |  |  |
| O=C1CCCC1C1CCCC1 (stereo not drawn) [2-cyclopentylcyclopentan-1-one] | > 16 |  |  |
| CCC/C=C/CO [(E)-hex-2-en-1-ol] | 15.44 ± 0.14 | 12.83 ± 0.12 |  |
| C/C(=C\CO)CCCC(C)CCCC(C)CCCC(C)C (stereo not drawn) [(E)-3,7,11,15-tetramethylhexadec-2-en-1-ol] | > 16 |  |  |
| C=CCc1ccc(O)c(OC)c1 [2-methoxy-4-prop-2-enylphenol] | > 16 |  |  |
| CC1=CCC2C(C1)C2(C)C (stereo not drawn) [3,7,7-trimethylbicyclo [4.1.0]hept-3-ene] | 14.56 ± 0.07 | 12.1 ± 0.06 |  |
| OCc1ccccc1 [Phenylmethanol] | 11.3 ± 0.27 | 9.4 ± 0.23 |  |
| CC(C)COC(=O)CCCCC(=O)OCC(C)C [Bis(2-methylpropyl) hexanedioate] | > 16 |  |  |
| CCCCCCCCCCCCCCCC(=O)O [Hexadecanoic acid] | 14.1 ± 0.33 | 11.7 ± 0.27 | Ki (SvelOBP1 [1]; [4]): 10 to 16 µM |
| c1ccc(Nc2cccc3ccccc23)cc1 [1-NPN, 1-N-phenyl-naphthylamine] |  |  | Kd (SvelOBP1 [2]): 4.92 ± 0.04 µM |
